In patent US7259004B1, “Endophytic streptomycetes from higher plants with biological activity” (Montana State University, priority 2002, dated 2007):

What was measured:
[1] = system: Eschericia coli ATCC 10536; assay: disk diffusion assay; details: A3-5-1 10 micrograms; Chloramphenicol 30 micrograms; MHA 35° C.
[2] = system: Enterococcus faecalis ATCC 51299; assay: disk diffusion assay; format: cell-based; details: A3-5-1 10 micrograms; Chloramphenicol 30 micrograms; MHA 35° C.
[3] = system: Staphylococcus aureus ATCC 29213; assay: disk diffusion assay; format: cell-based; details: MHA 35° C.
[4] = system: Shigella dysenteriae ATCC 11835; assay: disk diffusion assay; format: cell-based
[5] = system: Protein synthesis in Bacillus subtilis; assay: macromolecular synthesis whole cell assay, [3H]amino acid mixture incorporation; format: cell-based; details: 1×MIC
[6] = system: Haemophilus influenzae ATCC 49247; assay: disk diffusion assay; details: A3-5-1 10 micrograms; Chloramphenicol 30 micrograms; HTM 35° C. with 5% CO2
[7] = system: Staphylococus aureus (GISA) ATCC 700787; assay: disk diffusion assay; details: A3-5-1 10 micrograms; Chloramphenicol 30 micrograms; MHA 35° C.
[8] = system: Salmonella typhimurium ATCC 13311; assay: disk diffusion assay; details: MHA 35° C.
[9] = system: B. subtilis 1A757; assay: microbe, parasite or virus in culture; format: cell-based, Bacillus subtilis
[10] = system: Neiseseria gonorrhoeae ATCC 49266; assay: disk diffusion assay; details: A3-5-1 10 micrograms; Chloramphenicol 30 micrograms; GCA w/ 1% supplement in 5% CO2
[11] = system: Pseudomonas aeruginosa ATCC 27853; assay: disk diffusion assay; format: cell-based; details: A3-5-1 10 micrograms; Chloramphenicol 30 micrograms; MHA 35° C.
[12] = system: Escherichia coli ATCC 25922; assay: disk diffusion assay; format: cell-based; details: MHA 35° C.
[13] = system: Eschericia coli ATCC 35218; assay: disk diffusion assay; details: A3-5-1 10 micrograms; Chloramphenicol 30 micrograms; MHA 35° C.
[14] = system: Enterococcus faecalis ATCC 29212; assay: disk diffusion assay; format: cell-based; details: MHA 35° C.
[15] = system: Staphylococcus aureus (GISA) ATCC 700699; assay: disk diffusion assay; details: MHA 35° C.
[16] = system: DNA synthesis in Bacillus subtilis; assay: macromolecular synthesis whole cell assay, [3H]thymidine incorporation; format: cell-based; details: 1×MIC
[17] = system: Micrococcus luteus ATCC 9341; assay: disk diffusion assay; details: kakadumycin B at 10 μg; control antibiotic; MHA 35° C.
[18] = system: Enterococcus faecium ATCC 51559; assay: disk diffusion assay; format: cell-based; details: 10 micrograms per disk; ciprofloxacin 5, vancomycin 30 micrograms per disk; 35° C.
[19] = system: Acinetobacter sp. ATCC 49137; assay: disk diffusion assay; format: cell-based; details: A3-5-1 10 micrograms; Chloramphenicol 30 micrograms; MHA 35° C.
[20] = system: Enterococcus faecium ATCC 49624; assay: disk diffusion assay; format: cell-based; details: for Disk Diffusion, Enterococcus faecium 49624: MHA 35° C.
[21] = system: S. epidermis ATCC 12228; assay: disk diffusion assay; format: cell-based, Staphylococcus epidermidis; details: MHA 35° C.
[22] = system: Human Lung Cancer Epithelial A549; assay: CellTiter 96 Aqueous Non-Radioactive Cell Proliferation Assay; format: cell-based; details: Homo sapiens, A549; 48 hours; Table 7; read-out: IC50 Human Lung Cancer Epithelial A549
Method in brief: (§1)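 Cells rested 5 h at 37° C after seeding, then treated in triplicate with two-fold serial dilutions of compound. A-549 and ME-180 were exposed for 48 h. After 1–4 h MTS reagent at 37° C, OD490 was read and corrected by subtracting medium-only blanks.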

[23] = system: Human Cervical Cancer Epithelial ME180; assay: as above; format: cell-based; details: Homo sapiens, ME-180; 48 hours; Table 7; read-out: IC50 Human Cervical Cancer Epithelial ME180
Method in brief: as §1

[24] = system: S. maltophilia ATCC 13637; assay: disk diffusion assay; format: cell-based, Stenotrophomas maltophilia; details: MHA 35° C.
[25] = system: Streptococcus pneumoniae ATCC 49619; assay: disk diffusion assay; format: cell-based; details: A3-5-1 10 micrograms; Chloramphenicol 30 micrograms; MHA w/5% dsb 35° C. w/5% CO2
[26] = A3-5-1 10 micrograms, Chloramphenicol 30 micrograms
[27] = kakadumycin B at 10 μg, control antibiotic

O=C(N[C@H](CO)[C@H](O)c1ccc([N+](=O)[O-])cc1)C(Cl)Cl [Chloramphenicol, reference compound]
Disk Diffusion, Eschericia coli 10536 [1]: 28 mm
Disk Diffusion, Enterococcus faecalis (VRE) 51299 [2]: 8 mm
Disk Diffusion, Staphylococcus aureus 29213 [3, 26]: 25 mm
Disk Diffusion, Staphylococcus aureus 29213 [3, 27]: 19 mm
diameter of the zone of inhibition, Shigella dysenteriae ATCC 11835 ([4]; 10 micrograms per disk, 35° C.): 11 mm
Disk Diffusion, Shigella dysenteriae 11835 ([4]; A3-5-1 10 micrograms, Chloramphenicol 30 micrograms, MHA 35° C.): 40 mm
% [3H]amino acid mixture (Protein synthesis) incorporation of that of the untreated culture ([5]; 5 min): 44%
% [3H]amino acid mixture (Protein synthesis) incorporation of that of the untreated culture ([5]; 10 min): 36%
Disk Diffusion, Haemophilus influenzae 49247 [6]: 23 mm
Disk Diffusion, Staphylococus aureus (GISA) 700787 [7]: 29 mm
Disk Diffusion, Salmonella typhimurium 13311 [8, 26]: 28 mm
Disk Diffusion, Salmonella typhimurium 13311 [8, 27]: 28 mm
1×MIC against Bacillus subtilis [9]: 4 micrograms/ml
Disk Diffusion, Neiseseria gonorrhoeae 49266 [10]: 33 mm
Disk Diffusion, Pseudomonas aeruginosa 27853 [11]: R
Disk Diffusion, Eschericia coli 25922 [12, 26]: 29 mm
Disk Diffusion, Escherichia coli 25922 [12, 27]: 26 mm
Disk Diffusion, Eschericia coli 35218 [13]: R
Disk Diffusion, Enterococcus faecalis 29212 [14, 26]: 20 mm
Disk Diffusion, Enterococcus faecalis 29212 [14, 27]: 20 mm
Disk Diffusion, Staphylococcus aureus (GISA) 700699 [15, 26]: 26 mm
Disk Diffusion, Staphylococcus aureus (GISA) 700699 [15, 27]: 29 mm
% [3H]thymidine (DNA synthesis) incorporation of that of the untreated culture ([16]; 5 min): 58%
% [3H]thymidine (DNA synthesis) incorporation of that of the untreated culture ([16]; 10 min): 44%
Disk Diffusion, Micrococcus luteus 9341 [17]: 29 mm
diameter of the zone of inhibition, Enterococcus faecium ATCC 51559 [18]: 24 mm
Disk Diffusion, Acinetobacter spp. 49137 [19]: 8 mm
diameter of the zone of inhibition, Enterococcus faecium ATCC 49624 ([20]; 10 micrograms per disk, ciprofloxacin 5, vancomycin 30 micrograms per disk, 35° C.): 24 mm
Disk Diffusion, Enterococcus faecium 49624 [20, 26]: 25 mm
Disk Diffusion, Enterococcus faecium 49624 [20, 27]: 20 mm
Disk Diffusion, Staphylococcus epidermidis 12228 [21, 26]: 30 mm
Disk Diffusion, Staphylococcus epidermidis 12228 [21, 27]: 31 mm
IC50 [22]: > 40 mg/L
IC50 [23]: > 40 mg/L
Disk Diffusion, Stenotrophomas maltophilia 13637 [24, 26]: 28 mm
Disk Diffusion, Stenotrophomas maltophilia 13637 [24, 27]: 25 mm
Disk Diffusion, Streptococcus pneumoniae 49619 [25]: 22 mm
